Measured values: the NIST ThermoML archive (doi:10.1021/acs.jced.5b00849)
Several values for one entry are separate records, joined by “and”; a condition that tells them apart may be missing. Equal values may be shown once.

Key:
[1] = Boiling temperature at pressure P; conditions: Liquid, Ebulliometric method (Recirculating still)
[2] = Liquid, Ebulliometric method (Recirculating still)
[3] = refractive index (Na D-line) (dimensionless); conditions: 101 kPa, Liquid, Standard Abbe refractometry
[4] = refractive index (Na D-line) (dimensionless); xn = mol fraction of the nth substance listed; conditions: 101 kPa, Liquid, Standard Abbe refractometry

CO [methanol]
[1]
Conditions | Boiling temperature at pressure P [°C]
40 kPa | 42.6
46.66 kPa | 46
58.8 kPa | 51.2
67.59 kPa | 54.4
76.13 kPa | 57.5

O [water]
Conditions | refractive index, 293.2 K | refractive index, 298.2 K | vapor or sublimation pressure, 319.6 K [kPa] | vapor or sublimation pressure, 354.8 K [kPa] | vapor or sublimation pressure, 373.2 K [kPa]
[2] | – | – | 10.1 | 50.6 | 101.33
[3] | 1.3332 | 1.3327 | – | – | –

O [water] + CC1CCC(=O)O1
[4], x2 = 0
Conditions | refractive index
293.2 K | 1.3332
298.2 K | 1.3327

CC1CCC(=O)O1 (stereo not given) [γ-valerolactone]
Conditions | refractive index | vapor or sublimation pressure
[2], 347.1 K | – | 0.67 kPa
[2], 356 K | – | 1.33 kPa
[2], 370.4 K | – | 2.67 kPa
[2], 384.5 K | – | 5.07 kPa
[2], 401.4 K | – | 10.1 kPa and 10.13 kPa
[2], 416.4 K | – | 17.33 kPa
[2], 426.5 K | – | 24 kPa
[2], 435.3 K | – | 31.6 kPa
[2], 442.7 K | – | 39.46 kPa
[2], 451.5 K | – | 50.6 kPa and 50.66 kPa
[2], 459.2 K | – | 62.26 kPa
[2], 465.3 K | – | 73.06 kPa
[2], 469 K | – | 80.53 kPa
[2], 477.8 K | – | 101.19 kPa
[2], 480.2 K | – | 101.33 kPa
[3], 293.2 K | 1.4339 | –
[3], 298.2 K | 1.4316 | –

CC1CCC(=O)O1 (stereo not given) [γ-valerolactone] + O
refractive index, [4]
Conditions | 293.2 K | 298.2 K
x1 = 0.0158 | 1.342 | 1.3411
x1 = 0.0318 | 1.3505 | 1.3499
x1 = 0.0532 | 1.3591 | 1.3585
x1 = 0.0789 | 1.3682 | 1.3671
x1 = 0.1066 | 1.3761 | 1.3751
x1 = 0.1405 | 1.3837 | 1.3826
x1 = 0.1855 | 1.3913 | 1.39
x1 = 0.2295 | 1.3987 | 1.397
x1 = 0.2964 | 1.4062 | 1.4046
x1 = 0.3833 | 1.4135 | 1.4119
x1 = 0.5097 | 1.4204 | 1.4186
x1 = 0.7092 | 1.4273 | 1.4259
x1 = 1 | 1.4339 | 1.4316
